Marks after values point to notes of the source that are not given here. Residues, ends and D or L forms follow the SMILES beside them.
Experiments:
[1] = test system: old rats' spleen explants; experiment: Development of spleen explants taken from old rats (area index); assay type: cell-based; conditions: 10 ng/ml
Experimental: The experiments were staged on 35 fragments of the thymus and 45 fragments of the spleen taken from rats aged 24 months. Nutritional medium for cultivation consisted of 35% Eagle's solution, 25% calf fetal serum, 35% Hanx solution, 5% chicken embryonic extract, with the addition of glucose (0.6%), insulin (0.5 U/ml), penicillin (100 U/ml), glutamin (2 mM). […]
Peptide H-Glu-Asp-Pro-OH was added into the experimental medium in concentrations of 0.5, 10 and 100 ng/ml.
Area index (AI)—the ratio of total explant area including the growth zone to the initial area of thymus or spleen fragment was used as a criterion for measuring the biological activity. AI values were expressed in percent, control AI value being taken as 100%.

[2] = test system: thymus epithelium cells, line VTEC2.H/S; experiment: Proliferation of thymus epithelium cells in ageing cultures (3H-thymidin); assay type: cell-based, human; design: unit not given here
Experimental: The study was staged in vitro in the culture of thymus epithelium cells, which were represented by cells of suspension line VTEC2.H/S, obtained by transforming thymus epithelial cells of human embryo thymus with the material containing SV40 virus, and subsequent cloning of transformed cells.
Peptide H-Glu-Asp-Pro-OH was introduced into cell cultures in successive dilutions to ultimate concentrations of 2, 20 and 200 ng/ml. Proliferation of thymus epithelium cells subjected to 1, 4 and 7 passages was estimated using a radiometrical method, judging by the content of ^3H-thymidin.

[3] = test system: rat thymus cells; experiment: Premature aging induced by ionizing irradiation: rat thymus morphology and morphometry; assay type: in vivo, Wistar rats
Experimental: The experiments were conducted on 40 male Wistar rats 2 months old, weighing 180-210 g. Premature aging was modeled by gamma irradiation using LUCH-1 machine (source 60Co; dose output 17.166×10^−4 Gy/sec.). The animals were irradiated in the dose of 6 Gy daily for 5 days. All the animals were divided into 6 groups:
2 and 2a—irradiated rats;
3 and 3a—irradiated rats, subjected to subcutaneous injection of peptide H-Glu-Asp-Pro-OH in the dose of 0.5 μg per animal in 0.25 ml of sterile 0.9% NaCl solution in 24 hours after the first performance of irradiation for 10 days.
Animals of the 2 and 2a group received 0.9% NaCl solution in the same volume and following the same scheme. Slaughtering of the animals and extraction of their thymus were conducted using nembutal anaesthesia (50 mg/kg). Thymus in groups 1-3 was extracted on the 14th day after the experiment onset, in the 1a-3a groups—on the 21 day after the experiment onset.
Fragments of the extracted thymus were fixed for 24 hours in Buen sour liquid for optic microscopy. Material dehydration and filling it in with paraffin for optic microscopy were conducted according to conventional techniques. Paraffin sections (7 μm) were placed on a microscope slide covered with a poly-L-lysine film (Sigma). Histological and immunohistochemical examinations were carried out using Jenamed-2 microscope (Zeiss).
Review staining of the preparations was conducted by hematoxylin-eosin. Mast cells were selectively stained using 1% toluidine blue (Fluka) solution in 0.5M HCl with pH 0.5.
For electron microscopy fragments of the extracted thymus were fixed according to Karnovsky's method. […]
The morphometric studies were conducted by means of the system for computer analysis of microscopic images Imstar using Morphostar and Colquant-2 software, in accordance with the basic principles of stereology and morphometry. […] Proliferative activity index (IPCNA) was calculated using the following formula: IPCNA(%)=NPCNA/Nnuclei×100.

[4] = test system: elderly and old patients with age-related immune status decline; experiment: Clinical application in elderly and old patients exposed to small doses of ionizing irradiation; assay type: in vivo, human
Experimental: The efficacy of pharmaceutical composition, containing an effective amount of peptide H-Glu-Asp-Pro-OH as an active base, was studied in elderly and old patients, exposed to long-term ionizing irradiation in small doses.
The main group consisted of 38 elderly patients (18 men, 20 women), who were divided into 3 groups according to the intensity of immune status changes. […] Elderly and old patients with age-related decrease of the immune functions were injected with the pharmaceutical composition containing peptide H-Glu-Asp-Pro-OH in the dose of 10.0 μg in 1 ml of sterile 0.9% NaCl solution intramuscularly, daily, once a day for 10 days. 32 control group patients (14 men, 18 women) received only conventional treatment. The patients of both groups were from 62 to 83 years old. The efficacy of the pharmaceutical composition containing peptide H-Glu-Asp-Pro-OH was estimated judging by the dynamics of the patients' complaints and a set of objective indices, such as common blood and urine tests, immunologic study of peripheral blood (the number of T- and B-lymphocytes was estimated using the immunofluorescence method with monoclonal antibodies to CD3, CD4, CD8, CD20 differentiation lymphocytes antigens; content of immunoglobulins of different classes—using Mancini's method of radial immunodiffusion in the gel, T-lymphocytes functional activity—in lymphocyte migration inhibition reaction (LMIR) with Con A.

[5] = group 3: irradiated rats, 0.5 μg per animal s.c. for 10 days, 14th day
[6] = patients 62-83 years, after treatment including the peptide, i.m. daily for 10 days

`N[C@@H](CCC(=O)O)C(=O)N[C@@H](CC(=O)O)C(=O)N1CCC[C@H]1C(=O)O` [Peptide H-Glu-Asp-Pro-OH, glutamyl-aspartyl-proline] (H-Glu-Asp-Pro-OH) was tested, and the “Stimulating effect on spleen explants at longer term” value ([1]; 7th day) was “still visible, although it was less pronounced”, the “Area index (AI) in spleen explants, increase” value ([1]; rats aged 24 months) was 28% and the “Proliferation of thymus epithelial cells (3H-thymidin content)” value (shortened to “Proliferation of thymus epithelial cells”) ([2]; 2 ng/ml, 1st passage) was 1480 ± 89. The “Proliferation of thymus epithelial cells” value ([2]; 2 ng/ml, 4th passage) was 730 ± 54, the “Proliferation of thymus epithelial cells” value ([2]; 2 ng/ml, 7th passage) was 705 ± 46 and the “Proliferation of thymus epithelial cells” value ([2]; 20 ng/ml, 1st passage) was 1585 ± 95. For the same molecule, the “Proliferation of thymus epithelial cells” value ([2]; 20 ng/ml, 4th passage) was 680 ± 48, the “Proliferation of thymus epithelial cells” value ([2]; 20 ng/ml, 7th passage) was 680 ± 41 and the “Proliferation of thymus epithelial cells” value ([2]; 200 ng/ml, 1st passage) was 1530 ± 91. For the same molecule, the “Proliferation of thymus epithelial cells” value ([2]; 200 ng/ml, 4th passage) was 760 ± 58, the “Proliferation of thymus epithelial cells” value ([2]; 200 ng/ml, 7th passage) was 795 ± 49 and the “Number of mast cells in the thymus” value [3, 5] was 32±5 per 1 mm^2. The “Proliferative activity index (IPCNA) in the thymus” value [3, 5] was 55%, the “Involution changes of the thymus (microscopic analysis) vs irradiated groups 2 and 2a” value ([3]; groups 3, 3a: irradiated rats, 0.5 μg per animal s.c., 14th and 21st day) was “less pronounced involution changes” and the “Patients in whom disordered immune system indices were normalized” value ([4]; composition in different doses with symptomatic means, 56% in the control group) was 82%. The “Side effects in patients” value ([4]; elderly and old patients, composition in different doses) was “does not exert any side effects, complications or drug addiction”, the “General state and asthenic syndrome after the treatment course” value ([4]; elderly people in the three main groups) was “significant improvement of the general state and reduction of the asthenic syndrome” and the “CD3+, %” value [4, 6] was 55.7 ± 2.6 %. For the same molecule, the “CD3+, ×10^9/l” value [4, 6] was 1.86 ± 0.05 ×10^9/l, the “CD4+, %” value [4, 6] was 34.6 ± 2.0 % and the “CD4+, ×10^9/l” value [4, 6] was 0.67 ± 0.09 ×10^9/l. For the same molecule, the “CD4+/CD8+” value [4, 6] was 1.4*#, the “CD8+, %” value [4, 6] was 24.9 ± 1.8% and the “CD8+, ×10^9/l” value [4, 6] was 0.46 ± 0.07 ×10^9/l. For the same molecule, the “CD20+, %” value [4, 6] was 12.0 ± 0.7%, the “CD20+, ×10^9/l” value [4, 6] was 0.20 ± 0.01 ×10^9/l and the IgA [4, 6] was 2.1 ± 0.3 g/L. For the same molecule, the IgG [4, 6] was 14.9 ± 1.7 g/L, the IgM [4, 6] was 1.64 ± 0.06 g/L and the “LMIR (lymphocyte migration inhibition reaction with Con A)” value [4, 6] was 70.4 ± 4.9 %. The Leukocytes [4, 6] was 5.6 ± 0.1 ×10^9/l, the “Lymphocytes, %” value [4, 6] was 35.1 ± 2.1% and the “Lymphocytes, ×10^9/l” value [4, 6] was 1.87 ± 0.05 ×10^9/l.

— patent US8057810B2, “Peptide substance revealing an immunogeroprotective effect, pharmaceutical composition on its base and the method of its application” (priority 2006, dated 2011)
